Laboratory results as given in a melting point compilation (Tetko et al.; mined from patent text by program, amines drawn as free bases though some values may be those of a salt).

Cc1ccc2nc(Cl)c(C#N)c(Cl)c2c1 gave a melting point of 159 °C. With Nc1nc(N)nc(C=Cc2ccc(C=C3C(=O)NC(=O)NC3=O)cc2)n1 the melting point was over 350 °C. CS(=O)(=O)Nc1ccc2c(c1)C(=O)C1(CC1)O2 showed a melting point of 152 to 154 °C. With COC1=C(OC)C(=O)c2cc(Cl)ccc2C1=O the melting point was 125 to 126 °C. For O=C1C(=O)c2ccccc2C2=C1SCC(COc1cccnc1)O2 (centres undefined), the melting point was 153 to 155 °C. Work on CCN1CCNC1=C[N+](=O)[O-] yielded a melting point of 110 to 111 °C. With COc1ccc(CN(C)CCOc2ccc(NC(=O)c3cccc4c(=O)c5ccccc5[nH]c34)cc2)cc1OC the melting point was 140 °C. Molecule CCN(CC)CCC(N)=NO has a melting point of 52 to 54 °C. Work on COc1cc(-c2nc(NNC(=O)c3cc4c(C)c(C)ccc4n3CCCC#N)nn2CCC2CCCCC2)c(OC)cc1Cl yielded a melting point of 178 °C. CCc1c(Sc2cc(C)cc(C)c2)n(C/C=C/CO)c(=O)[nH]c1=O showed a melting point of 157 to 158 °C. For N#Cc1ccc(CC2CCN(Cc3ccccc3)CC2)cc1, the melting point was 95 to 96 °C. With O=C1c2cccc3cc4ccccc4c(c23)C(=O)N1CCNCCNCCN1C(=O)c2cccc3cc4ccccc4c(c23)C1=O the melting point was 203 °C. Cc1ncc(CO)n1-c1ccc([N+](=O)[O-])cc1C(=O)c1ccccc1F gave a melting point of 188 to 192 °C. Work on CCOC(=O)C1=C(C)OC(N)=C(C(=O)OCC)C1c1cccc([N+](=O)[O-])c1 (centres undefined) yielded a melting point of 161 °C. Molecule CC(C)(C)c1cc(C(=O)Nc2ccc(Cl)c(C(=O)O)c2)cc(C(C)(C)C)c1O has a melting point of 265 to 267 °C. Work on Cc1oc(-c2ccccc2)nc1CCOc1ccc(C[C@@H](C(=O)O)N2CCN(S(=O)(=O)c3ccccc3)CC2)cc1 yielded a melting point of 180 to 182 °C. Molecule Cc1cccnc1C(=O)NCCNC(=O)OC(C)(C)C has a melting point of 81 to 82 °C. For COc1nc(C)nc(NC(=O)NS(=O)(=O)c2c(C)csc2C)n1, the melting point was 189 °C. Molecule CC(C)c1cccc(C(C)C)c1N1C(=O)c2cccc3c(C#N)ccc(c23)C1=O has a melting point of 291 °C. O=S(CCCCOc1ccc(C2=C(c3ccccc3)CCCc3cc(O)ccc32)cc1)Cc1ccccn1 (centres undefined) showed a melting point of 162 °C. O=C1Cc2c(OCc3ccccc3)cc(OCc3ccccc3)cc2O[C@@H]1c1ccc(OCc2ccccc2)c(OCc2ccccc2)c1 gave a melting point of 144 °C. In the case of N#Cc1ccc(-c2ccc(C(F)(F)F)cn2)cc1SCC1CC1, the melting point is reported as 135 to 136 °C. CCOCc1nc2c(N)nc3cc(OCCN)ccc3c2n1CC(C)(C)O gave a melting point of 163 to 165 °C. For CC[C@@H](c1ccccc1)N(Cc1cccc(C(=O)O)c1)S(=O)(=O)c1ccc(Cl)cc1, the melting point was 65 to 67 °C. With O=[N+]([O-])c1ccc(NN=C(Cl)c2ccccc2)cc1 the melting point was 195 to 196 °C. Molecule CC(C)CN=C1C(c2ccccc2)=C(c2ccccc2)C(c2ccccc2)=C1c1ccccc1 has a melting point of 158 °C. Cc1ccc(N2CCN(Cc3n[nH]c4ccccc34)CC2)nc1 gave a melting point of 151 to 153 °C. Molecule O=C(O)c1ccc2oc3c(c(=O)c2c1)CCC3=Cc1ccccn1 has a melting point of 325 to 328 °C. Nc1ncnc2c1c(-c1cc(O)cc(F)c1)nn2Cc1oc2ccc(F)cc2c(=O)c1-c1cccc(F)c1 gave a melting point of 127 to 129 °C. Work on Nc1ccc(CC(=O)N2CCCC2)cc1N yielded a melting point of 105 to 108 °C. CC(C)(C)CC1NC(C(=O)NC2CCC(O)CC2)C(c2cccc(Cl)c2F)C12C(=O)Nc1cc(Cl)ccc12 (centres undefined) showed a melting point of 176 °C. In the case of COC(=O)C1CC1c1ccc(O)cc1 (centres undefined), the melting point is reported as 69 to 71 °C. In the case of CCOC(=O)c1nn(-c2ccc(OC(F)F)cc2)c2cccc(Cl)c2c1=O, the melting point is reported as 134 °C. For CC(c1ccccc1)N(C=O)C(C#N)C=O (single isomer, unassigned; (+)), the melting point was 245 °C. COC(=O)CC1(OCc2ccccc2)C=CC=C(c2ccccc2)C1 (centres undefined) gave a melting point of 50 to 52 °C. For Cc1noc(NS(=O)(=O)c2ccccc2-c2ccc(-c3nccs3)cc2)c1C, the melting point was 87 to 97 °C. CC(C)(C)OC(=O)c1nn(-c2ccc(Cl)cc2Cl)c(-c2ccc(Cl)cc2)c1CBr showed a melting point of 139 °C. CN1CCc2cc(O)c(O)cc2C1C1(c2ccc3ccccc3c2)CCC1 (centres undefined) showed a melting point of 150 to 153 °C. Molecule Fc1cc(CC2(Cc3ccnc(F)c3)c3cccnc3-c3ncccc32)ccn1 has a melting point of 239 to 241 °C. For COc1ccc(C(=O)c2cccc(C(F)(F)F)c2)cc1C, the melting point was 56 to 59 °C. Work on COc1cc(OC)nc(Oc2ccc3ccccc3c2C(=O)O)n1 yielded a melting point of 187 to 189 °C. CCCCN1CC(=O)N2[C@@H](c3ccc(N)cc3)c3[nH]c4ccccc4c3C[C@@H]2C1=O (relative stereo) showed a melting point of 192 °C. COc1ccc2c(c1)CCC1C2CCC2(C)C(NCCCCCCN)CCC12 (centres undefined) gave a melting point of 93 to 94 °C. O=S(=O)(Nc1cnc(-n2cnnn2)nc1NCc1ccccc1)c1ccc(Br)cc1 gave a melting point of 184 °C. CC1CC(=O)NN=C1c1ccc2c(c1)N(S(C)(=O)=O)CCO2 (centres undefined) gave a melting point of 207 to 212 °C. O=C(O)c1ccc(NC(=O)[C@H](CO)NS(=O)(=O)c2ccc(Cl)cc2)cc1 showed a melting point of 231 to 234 °C. With Cc1nc(-c2ccc(F)cc2)c(COc2ccc(-c3nc4cc(C(=O)O)ccc4n3C3CCCCC3)cc2)s1 the melting point was 196 to 198 °C. In the case of CC#CCOc1ccc(SC(C(=O)NO)C(C)C)cc1 (centres undefined), the melting point is reported as 128 °C. Work on Cc1nccn1-c1nc(-c2ccc(Cl)cc2)c(CCC(=O)NCCCl)o1 yielded a melting point of 155 to 156 °C. For COC(=O)c1nc2ccc(C=O)cc2cc1C, the melting point was 118 to 121 °C. Work on COc1ccc2nc(-c3c[nH]c4ccccc34)[nH]c(=O)c2c1 yielded a melting point of 311 to 312 °C. With CC(=O)Nc1cc(OCCC(=O)O)ccc1Oc1ccccc1 the melting point was 138 to 140 °C. Work on CCCCN(CC)C(=O)c1cnc2c3c(ccc2c1)C(=O)C(C(=O)O)C=N3 (centres undefined) yielded a melting point of 236 to 237 °C. O=C1c2cccc3cccc(c23)C(=O)N1CCCO gave a melting point of 115 to 118 °C. For O=C1C=CC(O)(c2ccc(OCCCCl)cc2)O1 (centres undefined), the melting point was 219 to 220 °C. Molecule CCOC(=O)Cc1c(C)nc(SCc2ccc(OC)cc2)n1C has a melting point of 158 to 160 °C. With CNC(=O)c1ccccc1-c1cc(-c2ccccc2)no1 the melting point was 119 to 121 °C. With CCCCCCCCCc1cnc(-c2ccc(C(=O)OC)cc2)nc1 the melting point was 61.7 °C. Molecule CCCOc1ccc(-c2ccc(OCC(CN3C(=O)NC(C)(C)C3=O)N(O)C=O)cc2)cc1 (centres undefined) has a melting point of 158 to 160 °C. CCc1oc2cccc(O)c2c1C showed a melting point of 105 to 107 °C. CC(=O)N(C(C)=O)c1nc2n(n1)Cc1ccccc1-2 gave a melting point of 174 to 176 °C. With CC(C)CC(S)C(=O)NC(CC(C)C)C(=O)NC(Cc1ccc(-c2cccs2)nc1)C(=O)O (centres undefined) the melting point was 156 to 158 °C. Molecule Cc1nc2c(Cl)c(NC(=O)Cc3ccc(Cl)cc3)ccc2s1 has a melting point of 227 to 229 °C. With O=C(O)CCc1ccc2ccccc2c1Br the melting point was 116 to 119 °C. In the case of CCCCOc1ccc(S(=O)(=O)N2CC(NCC(O)c3ccc(O)c(NS(C)(=O)=O)c3)C2)cc1 (centres undefined), the melting point is reported as 67 to 70 °C. Molecule CSc1nc(=O)n(-c2ccc(Cl)cc2)c(=O)[nH]1 has a melting point of 292 to 295 °C. For O=C1COc2cc(F)c(NC(=O)c3ccccc3[N+](=O)[O-])cc2N1, the melting point was over 248 °C. CNC1(c2ccccc2Cl)C(=O)Nc2ccc(C)cc21 (centres undefined) showed a melting point of 186 to 187 °C. Molecule O=C(O)CCc1cn(Cc2ccc(OCc3csc(-c4cnccn4)n3)cc2)cc1-c1ccccc1 has a melting point of 137 to 138 °C. With COC(=O)c1cc(COc2ccccc2)cc(C(=O)OC)c1 the melting point was 95 to 97 °C. Work on Nc1cccnc1CCCCNc1ncc(Cc2cccnc2)c(=O)[nH]1 yielded a melting point of 130 to 132 °C. Cc1c(Cl)cccc1S(=O)(=O)Nc1nc(CC(=O)N(C)C)cs1 gave a melting point of 84 °C. CNc1ccc(-c2[nH]cnc2-c2cc(OC)cc(OC)c2)cc1F showed a melting point of 182 to 184 °C. Cn1c(=O)sc2cc(N3C[C@H](CN)OC3=O)ccc21 gave a melting point of 217 °C. Molecule CCCc1ccc(-c2nc(-c3ccccc3Cl)nn2C)c(Cl)c1 has a melting point of 70 to 72 °C. For CC(=O)Nc1ccc(S(=O)(=O)Nc2cc(C)on2)cc1, the melting point was 220 to 222 °C. Molecule O=C1c2ccccc2C(=O)N1CCON1CCNC1=Nc1c(Cl)cccc1Cl has a melting point of 129 to 130 °C. NC(=O)[C@H]1CN(c2cc(F)c(N3CCOCC3)c(F)c2)C(=O)O1 gave a melting point of 181 to 183 °C. With COc1ccccc1Nc1cccc(C(=O)Nc2ccccc2)c1 the melting point was 153 to 154 °C. Molecule Cc1cccc2oc(Nc3ccc(C(=O)O)cc3)nc12 has a melting point of 327 to 329 °C. N#Cc1ccc2c(c1)c(CCN1C(=O)c3ccccc3C1=O)cn2Cc1ccccc1 gave a melting point of 182 to 184 °C. Molecule NNC(=O)Cc1c(F)cccc1F has a melting point of 177 to 178 °C. For CCc1cc2c(s1)S(=O)(=O)NC2=O, the melting point was 143 °C. NC(=O)c1cnc2sccc2c1Cl gave a melting point of 159 to 160 °C. Work on CC(=O)Nn1cnc2c(Br)csc2c1=O yielded a melting point of 273 °C. For O=C(C#Cc1ccncc1)c1ccccc1, the melting point was 74 to 75 °C. COc1cccc(CC(=O)O)c1OCCCc1cn(-c2cc(C(F)(F)F)ccn2)nc1C(C)C gave a melting point of 127 to 128 °C. Molecule CCOc1cccc(C(=O)N2CCc3cc(O)ccc3C2)c1 has a melting point of 150 to 151 °C. In the case of CCCCCCCCCCCCc1ccc(S(=O)(=O)Nc2nnc(C(=O)OCC)s2)cc1, the melting point is reported as 96 to 97 °C. COc1ccc(-c2coc3ccc(-c4nnc(SCc5ccc(OC)c(C(F)(F)F)c5)o4)cc23)cc1 gave a melting point of 162 to 163 °C. With COc1cc2c(CC(=O)O)c(C)n(C(=O)c3ccc(Cl)s3)c2cc1F the melting point was 169 °C. In the case of O=C(c1ccc(CCCCc2ccccc2)cc1)N(O)Cc1ccccc1, the melting point is reported as 83.5 to 85 °C. Work on CCC(CNC(=O)OC(C)(C)C)n1cnc2c(N)nc3ccccc3c21 (centres undefined) yielded a melting point of 171 to 173 °C. O=C(Nc1ccccc1)c1ccc(Nc2ccccc2)nc1 showed a melting point of 264 to 266 °C. CCOc1cc2c(cc1OC)C(c1ccc(C(=O)N(C(C)C)[C@@H](C)CO)cc1)=N[C@@H]1CCN(C)C[C@H]21 showed a melting point of 104 to 112 °C. For CCOC(=O)Cc1cc(OC)c2c(c1)C1(O)C(=O)c3ccccc3C1(O)O2 (centres undefined), the melting point was 133 to 136 °C. Work on CC(=O)c1ccc(-c2ccc(Cl)c(Cl)c2)o1 yielded a melting point of 114 to 117 °C. Molecule CCOCc1nc2c(N)nc3cc(-c4ccncc4)ccc3c2n1CC(C)(C)O has a melting point of 220 to 221 °C. In the case of CC(C)(C)OC(=O)/C=C1\CCc2cccc3c2N1CC3, the melting point is reported as 105 to 107 °C.
